Assay results: patent publication US20170190671A1, “BIS(ARYL)CATECHOL DERIVATIVES AS HERBICIDES” (E I DU PONT DE NEMOURS AND COMPANY, priority 2014, published 2017)

Assays:
Type in all cases: in vivo
[1] = system: pigweed (Amaranthus retroflexus); assay: Test A preemergence
Description: (§1) Seeds of plant species selected from barnyardgrass (Echinochloa crus-galli), kochia (Kochia scoparia), ragweed (common ragweed, Ambrosia elatior), Italian ryegrass (Lolium multiflorum), large (Lg) crabgrass (Digitaria sanguinalis), giant foxtail (Setaria faberii), morningglory (Ipomoea spp.), pigweed (Amaranthus retroflexus), velvetleaf (Abutilon theophrasti), wheat (Triticum aestivum), and corn (Zea mays) were planted into a blend of loam soil and sand and treated preemergence with a directed soil spray using test chemicals formulated in a non-phytotoxic solvent mixture which included a surfactant.
(§2) At the same time, plants selected from these crop and weed species and also blackgrass (Alopecurus myosuroides), and galium (catchweed bedstraw, Galium aparine) were planted in pots containing the same blend of loam soil and sand and treated with postemergence applications of test chemicals formulated in the same manner. Plants ranged in height from 2 to 10 cm and were in the one- to two-leaf stage for the postemergence treatment. Treated plants and untreated controls were maintained in a greenhouse for approximately 10 days, after which time all treated plants were compared to untreated controls and visually evaluated for injury. Plant response ratings, summarized in Table A, are based on a 0 to 100 scale where 0 is no effect and 100 is complete control. A dash (-) response means no test result.

[2] = system: ragweed (common ragweed, Ambrosia elatior); assay: Test A preemergence
Description: as §1, §2

[3] = system: barnyardgrass (Echinochloa crus-galli); assay: Test A preemergence
Description: as §1, §2

kochia (Kochia scoparia) [4] = assay: Test A preemergence
Description: as §1, §2

[5] = system: giant foxtail (Setaria faberii); assay: Test A preemergence
Description: as §1, §2

[6] = system: Italian ryegrass (Lolium multiflorum); assay: Test A preemergence
Description: as §1, §2

[7] = system: pigweed (Amaranthus retroflexus); assay: Test A postemergence; conditions: 0 to 100 scale
Description: as §1, §2

[8] = system: blackgrass (Alopecurus myosuroides); assay: Test A postemergence; conditions: 0 to 100 scale
Description: as §1, §2

[9] = system: ragweed (common ragweed, Ambrosia elatior); assay: Test A postemergence; conditions: 0 to 100 scale
Description: as §1, §2

corn (Zea mays) = assay: Test A postemergence; conditions: 0 to 100 scale
Description: as §1, §2

[10] = system: galium (catchweed bedstraw, Galium aparine); assay: Test A postemergence; conditions: 0 to 100 scale
Description: as §1, §2

[11] = system: barnyardgrass (Echinochloa crus-galli); assay: Test A postemergence; conditions: 0 to 100 scale
Description: as §1, §2

kochia (Kochia scoparia) [12] = assay: Test A postemergence; conditions: 0 to 100 scale
Description: as §1, §2

[13] = system: giant foxtail (Setaria faberii); assay: Test A postemergence; conditions: 0 to 100 scale
Description: as §1, §2

[14] = system: Italian ryegrass (Lolium multiflorum); assay: Test A postemergence; conditions: 0 to 100 scale
Description: as §1, §2

[15] = system: wheat (Triticum aestivum); assay: Test A postemergence; conditions: 0 to 100 scale
Description: as §1, §2

[16] = 31 g ai/ha, 0 to 100 scale (0 no effect, 100 complete control)

SMILES: N#Cc1cccc(Oc2ncc(Br)cn2)c1Oc1cccnc1 [Compound 7]
- pest or weed control at 31 g/ha ([1]; Amaranthus retroflexus, pre-emergence, 240 h, 31 g ai/ha, 0 to 100 scale (0 no effect, 100 complete control), read-out: Pigweed plant response rating): 0%
- pest or weed control at 125 g/ha ([1]; Amaranthus retroflexus, pre-emergence, 240 h, 125 g ai/ha, 0 to 100 scale, read-out: Plant response rating, Pigweed): 0%
- pest or weed control at 31 g/ha ([2]; Ambrosia artemisiifolia, pre-emergence, 240 h, 31 g ai/ha, 0 to 100 scale (0 no effect, 100 complete control), read-out: Ragweed plant response rating): 0%
- pest or weed control at 125 g/ha ([2]; Ambrosia artemisiifolia, pre-emergence, 240 h, 125 g ai/ha, 0 to 100 scale, read-out: Plant response rating, Ragweed): 0%
- pest or weed control at 31 g/ha ([3]; Echinochloa crus-galli, pre-emergence, 240 h, 31 g ai/ha, 0 to 100 scale (0 no effect, 100 complete control), read-out: Barnyardgrass plant response rating): 0%
- pest or weed control at 125 g/ha ([3]; Echinochloa crus-galli, pre-emergence, 240 h, 125 g ai/ha, 0 to 100 scale, read-out: Plant response rating, Barnyardgrass): 0%
- pest or weed control at 31 g/ha (kochia (Kochia scoparia) [4]; Bassia scoparia, pre-emergence, 240 h, 31 g ai/ha, 0 to 100 scale (0 no effect, 100 complete control), read-out: Kochia plant response rating): 0%
- pest or weed control at 125 g/ha (kochia (Kochia scoparia) [4]; Bassia scoparia, pre-emergence, 240 h, 125 g ai/ha, 0 to 100 scale, read-out: Plant response rating, Kochia): 0%
- pest or weed control at 31 g/ha ([5]; Setaria faberi, pre-emergence, 240 h, 31 g ai/ha, 0 to 100 scale (0 no effect, 100 complete control), read-out: Foxtail, Giant plant response rating): 0%
- pest or weed control at 125 g/ha ([5]; Setaria faberi, pre-emergence, 240 h, 125 g ai/ha, 0 to 100 scale, read-out: Plant response rating, Foxtail, Giant): 0%
- pest or weed control at 31 g/ha ([6]; Lolium multiflorum, pre-emergence, 240 h, 31 g ai/ha, 0 to 100 scale (0 no effect, 100 complete control), read-out: Ryegrass, Italian plant response rating): 0%
- pest or weed control at 125 g/ha ([6]; Lolium multiflorum, pre-emergence, 240 h, 125 g ai/ha, 0 to 100 scale, read-out: Plant response rating, Ryegrass, Italian): 0%
- pest or weed control at 31 g/ha ([7]; Amaranthus retroflexus, post-emergence, 240 h, 31 g ai/ha, read-out: Plant response rating, Pigweed): 10%
- pest or weed control at 125 g/ha ([7]; Amaranthus retroflexus, post-emergence, 240 h, 125 g ai/ha, read-out: Plant response rating, Pigweed): 20%
- pest or weed control at 31 g/ha ([8]; Alopecurus myosuroides, post-emergence, 240 h, 31 g ai/ha, read-out: Plant response rating, Blackgrass): 0%
- pest or weed control at 125 g/ha ([8]; Alopecurus myosuroides, post-emergence, 240 h, 125 g ai/ha, read-out: Plant response rating, Blackgrass): 0%
- pest or weed control at 31 g/ha ([9]; Ambrosia artemisiifolia, post-emergence, 240 h, 31 g ai/ha, read-out: Plant response rating, Ragweed): 0%
- pest or weed control at 125 g/ha ([9]; Ambrosia artemisiifolia, post-emergence, 240 h, 125 g ai/ha, read-out: Plant response rating, Ragweed): 0%
- Corn plant response rating (crop injury, 0 = no effect, 100 = complete kill) at 31 g/ha (corn (Zea mays); Zea mays, post-emergence, 240 h, 31 g ai/ha): 0%
- Corn plant response rating (crop injury, 0 = no effect, 100 = complete kill) at 125 g/ha (corn (Zea mays); Zea mays, post-emergence, 240 h, 125 g ai/ha): 10%
- pest or weed control at 31 g/ha ([10]; Galium, post-emergence, 240 h, 31 g ai/ha, read-out: Plant response rating, Galium): 10%
- pest or weed control at 125 g/ha ([10]; Galium, post-emergence, 240 h, 125 g ai/ha, read-out: Plant response rating, Galium): 10%
- pest or weed control at 31 g/ha ([11]; Echinochloa crus-galli, post-emergence, 240 h, 31 g ai/ha, read-out: Plant response rating, Barnyardgrass): 0%
- pest or weed control at 125 g/ha ([11]; Echinochloa crus-galli, post-emergence, 240 h, 125 g ai/ha, read-out: Plant response rating, Barnyardgrass): 0%
- pest or weed control at 31 g/ha (kochia (Kochia scoparia) [12]; Bassia scoparia, post-emergence, 240 h, 31 g ai/ha, read-out: Plant response rating, Kochia): 0%
- pest or weed control at 125 g/ha (kochia (Kochia scoparia) [12]; Bassia scoparia, post-emergence, 240 h, 125 g ai/ha, read-out: Plant response rating, Kochia): 10%
- pest or weed control at 31 g/ha ([13]; Setaria faberi, post-emergence, 240 h, 31 g ai/ha, read-out: Plant response rating, Foxtail, Giant): 0%
- pest or weed control at 125 g/ha ([13]; Setaria faberi, post-emergence, 240 h, 125 g ai/ha, read-out: Plant response rating, Foxtail, Giant): 0%
- pest or weed control at 31 g/ha ([14]; Lolium multiflorum, post-emergence, 240 h, 31 g ai/ha, read-out: Plant response rating, Ryegrass, Italian): 0%
- pest or weed control at 125 g/ha ([14]; Lolium multiflorum, post-emergence, 240 h, 125 g ai/ha, read-out: Plant response rating, Ryegrass, Italian): 0%
- plant injury at 31 g/ha ([15]; Triticum aestivum, post-emergence, 240 h, 31 g ai/ha, read-out: Plant response rating, Wheat): 0%
- plant injury at 125 g/ha ([15]; Triticum aestivum, post-emergence, 240 h, 125 g ai/ha, read-out: Plant response rating, Wheat): 0%

SMILES: FC(F)(F)c1cnc(Oc2c(Br)cccc2Oc2ncc(Cl)cn2)s1 [Compound 6]
- Pigweed plant response rating [1, 16]: 30
- Plant response rating, Pigweed ([1]; 125 g ai/ha, 0 to 100 scale): 90
- Ragweed plant response rating [2, 16]: 0
- Plant response rating, Ragweed ([2]; 125 g ai/ha, 0 to 100 scale): 0
- Barnyardgrass plant response rating [3, 16]: 20
- Plant response rating, Barnyardgrass ([3]; 125 g ai/ha, 0 to 100 scale): 70
- Kochia plant response rating (kochia (Kochia scoparia) [4]; [16]): 30
- Plant response rating, Kochia (kochia (Kochia scoparia) [4]; 125 g ai/ha, 0 to 100 scale): 80
- Foxtail, Giant plant response rating [5, 16]: 60
- Plant response rating, Foxtail, Giant ([5]; 125 g ai/ha, 0 to 100 scale): 100
- Ryegrass, Italian plant response rating [6, 16]: 0
- Plant response rating, Ryegrass, Italian ([6]; 125 g ai/ha, 0 to 100 scale): 20
- Plant response rating, Pigweed ([7]; 31 g ai/ha): 50
- Plant response rating, Pigweed ([7]; 125 g ai/ha): 90
- Plant response rating, Blackgrass ([8]; 31 g ai/ha): 10
- Plant response rating, Blackgrass ([8]; 125 g ai/ha): 40
- Plant response rating, Ragweed ([9]; 31 g ai/ha): 0
- Plant response rating, Ragweed ([9]; 125 g ai/ha): 20
- Plant response rating, Corn (corn (Zea mays); 31 g ai/ha): 0
- Plant response rating, Corn (corn (Zea mays); 125 g ai/ha): 10
- Plant response rating, Galium ([10]; 31 g ai/ha): 70
- Plant response rating, Galium ([10]; 125 g ai/ha): 100
- Plant response rating, Barnyardgrass ([11]; 31 g ai/ha): 10
- Plant response rating, Barnyardgrass ([11]; 125 g ai/ha): 100
- Plant response rating, Kochia (kochia (Kochia scoparia) [12]; 31 g ai/ha): 70
- Plant response rating, Kochia (kochia (Kochia scoparia) [12]; 125 g ai/ha): 100
- Plant response rating, Foxtail, Giant ([13]; 31 g ai/ha): 10
- Plant response rating, Foxtail, Giant ([13]; 125 g ai/ha): 60
- Plant response rating, Ryegrass, Italian ([14]; 31 g ai/ha): 0
- Plant response rating, Ryegrass, Italian ([14]; 125 g ai/ha): 50
- Plant response rating, Wheat ([15]; 31 g ai/ha): 0
- Plant response rating, Wheat ([15]; 125 g ai/ha): 10
